Target: T1, cPLA2 (Homo sapiens, UniProt P47712)
T1 sequence (P47712 1-749): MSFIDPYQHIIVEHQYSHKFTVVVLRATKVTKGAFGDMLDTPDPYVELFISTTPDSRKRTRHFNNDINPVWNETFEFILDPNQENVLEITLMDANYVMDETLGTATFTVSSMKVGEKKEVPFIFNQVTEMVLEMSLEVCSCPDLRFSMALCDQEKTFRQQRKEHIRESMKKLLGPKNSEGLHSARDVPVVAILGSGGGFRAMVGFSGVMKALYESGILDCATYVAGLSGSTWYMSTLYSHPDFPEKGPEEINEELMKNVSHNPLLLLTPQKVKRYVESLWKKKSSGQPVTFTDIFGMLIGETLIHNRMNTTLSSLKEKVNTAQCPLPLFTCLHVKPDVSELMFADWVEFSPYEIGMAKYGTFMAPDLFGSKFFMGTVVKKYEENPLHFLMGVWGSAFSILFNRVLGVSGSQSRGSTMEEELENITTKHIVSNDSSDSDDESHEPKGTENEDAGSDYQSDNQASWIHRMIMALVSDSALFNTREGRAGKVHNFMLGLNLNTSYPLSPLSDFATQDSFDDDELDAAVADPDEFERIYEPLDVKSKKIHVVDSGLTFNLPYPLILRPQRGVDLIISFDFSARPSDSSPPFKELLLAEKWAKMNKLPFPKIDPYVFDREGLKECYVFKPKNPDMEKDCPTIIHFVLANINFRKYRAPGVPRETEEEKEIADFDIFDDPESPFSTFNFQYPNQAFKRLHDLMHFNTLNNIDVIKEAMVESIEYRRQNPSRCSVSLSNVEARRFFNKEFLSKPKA
Assay: Coumarine Assay
Format: biochemical
Details: 60 μM 7-hydroxycoumarinyl 6-heptenoate substrate, 4 μg cPLA2, pH 7.5, fluorescence ex 360 nm / em 460 nm; read-out: Coumarin IC50

Row | Compound | IC50 [nM]
1 | 2-(2{[(2-Aminobenzyl)sulfonyl]amino}ethyl)-4-(2-[1-benzhydryl-5-chloro-1H-indol-3-yl]ethoxy}benzoic acid [Example 16] | 980
2 | 4-{2-[1-Benzhydryl-5-chloro-2-(2-{[(2-cyanobenzyl)sulfonyl]amino}ethyl)-1H-indol-3-yl]ethoxy)benzoic acid [Example 35] | 330
3 | O=C(O)c1ccc(OCCc2c(CCNS(=O)(=O)Cc3ccccc3)n(C(c3ccccc3)c3ccccc3)c3ccc(Cl)cc23)cc1 [Example 1, 4-[2-(1-Benzhydryl-2-{2[(benzylsulfonyl)amino]ethyl}-5-chloro-1H-indol-3-yl)ethoxyl]benzoic acid] | 420
4 | CC(C)S(=O)(=O)NCCc1c(CCOc2ccc(C(=O)O)cc2)c2cc(Cl)ccc2n1C(c1ccccc1)c1ccccc1 [Example 2, 4-[2-(1-Benzhydryl-5-chloro-2-{2-[(isopropylsulfonyl)amino]ethyl}-1H-indol-3-yl)ethoxy]benzoic acid] | 2000
5 | CCCCS(=O)(=O)NCCc1c(CCOc2ccc(C(=O)O)cc2)c2cc(Cl)ccc2n1C(c1ccccc1)c1ccccc1 [Example 3, 4-[2-(1-Benzhydryl-2-{2-[(butylsulfonyl)amino]ethyl}-5-chloro-1H-indol-3-yl)ethoxy]benzoic acid] | 2500
6 | Cn1cnc(S(=O)(=O)NCCc2c(CCOc3ccc(C(=O)O)cc3)c3cc(Cl)ccc3n2C(c2ccccc2)c2ccccc2)c1 [Example 4, 4-{2-[1-Benzhydryl-5-chloro-2-(2{[(1-methyl-1H-imidazol-4-yl)sulfonyl]amino}ethyl)-1H-indol-3-yl]ethoxy}benzoic acid] | 56000
7 | O=C(O)c1ccc(OCCc2c(CCNS(=O)(=O)c3cnc(Cl)c(Br)c3)n(C(c3ccccc3)c3ccccc3)c3ccc(Cl)cc23)cc1 [Example 5, 4-{2-[1-Benzhydryl-2-(2-{[(5-bromo6-chloro-3-pyridinyl)sulfonyl]amino}ethyl)-5-chloro-1H-indol-3-yl]ethoxy}benzoic acid] | 3000
8 | CC1(C)C2CC[C@]1(CS(=O)(=O)NCCc1c(CCOc3ccc(C(=O)O)cc3)c3cc(Cl)ccc3n1C(c1ccccc1)c1ccccc1)C(=O)C2 [Example 6, 4-[2-(1-Benzhydryl-5-chloro-2-{2-[({[(1R)-7,7-dimethyl-2-oxobicyclo[2.2.1]hept-1-yl]methyl}sulfonyl)amino]ethyl}-1H-indol-3-yl)ethoxy]benzoic acid] | 2000
9 | CS(=O)(=O)CS(=O)(=O)NCCc1c(CCOc2ccc(C(=O)O)cc2)c2cc(Cl)ccc2n1C(c1ccccc1)c1ccccc1 [Example 7, 4-(2-(1-Benzhydryl-5-chloro-2-[2-({[(methylsulfonyl)methyl]sulfonyl}amino)ethyl]-1H-indol-3-yl}ethoxy)benzoic acid] | 550
10 | O=C(O)c1ccc(OCCc2c(CCNS(=O)(=O)CCc3cccc4ccccc34)n(C(c3ccccc3)c3ccccc3)c3ccc(Cl)cc23)cc1 [Example 8] | 2000
11 | O=C(O)c1ccc(OCCc2c(CCNS(=O)(=O)Cc3ccccc3[N+](=O)[O-])n(C(c3ccccc3)c3ccccc3)c3ccc(Cl)cc23)cc1 [Example 9, 4-{2-[1-Benzhydryl-5-chloro-2-(2-[({2-nitrobenzyl}-sulfonyl)amino]ethyl}-1H-indol-3-yl)ethoxy]benzoic acid] | 700
12 | O=C(O)c1ccc(OCCc2c(CCNS(=O)(=O)Cc3ccc(C(F)(F)F)cc3)n(C(c3ccccc3)c3ccccc3)c3ccc(Cl)cc23)cc1 [Example 13] | 640
13 | O=C(O)c1ccc(OCCc2c(CCNS(=O)(=O)Cc3ccc(F)cc3)n(C(c3ccccc3)c3ccccc3)c3ccc(Cl)cc23)cc1 [Example 14, 4-{2-[1-Benzhydryl-5-chloro-2-(2-{[(4-fluorobenzyl)sulfonyl]amino}-ethyl)-1H-indol-3-yl]ethoxy}benzoic acid] | 800
14 | CN(C)S(=O)(=O)NCCc1c(CCOc2ccc(C(=O)O)cc2)c2cc(Cl)ccc2n1C(c1ccccc1)c1ccccc1 [Example 17, 4-{2-[1-Benzhydryl-5-chloro-2-(2-{[(dimethylamino)sulfonyl]amino}ethyl)-1H-indol-3-yl]ethoxy}benzoic acid] | 200
15 | O=C(O)c1ccc(OCCc2c(CCNS(=O)(=O)Cc3ccc(F)c(F)c3)n(C(c3ccccc3)c3ccccc3)c3ccc(Cl)cc23)cc1 [Example 18, 4-{2-[1-Benzhydryl-5-chloro-2-(2{[(3,4-difluorobenzyl)sulfonyl]amino}-ethyl)-1H-indol-3-yl]ethoxy}benzoic acid] | 400
16 | O=C(O)c1ccc(OCCc2c(CCNS(=O)(=O)Cc3ccc4ccccc4c3)n(C(c3ccccc3)c3ccccc3)c3ccc(Cl)cc23)cc1 [Example 19, 4-{2-[1-benzhydryl-5-chloro-2-(2{[(2-naphthylmethyl)sulfonyl]amino}ethyl)-1H-indol-3-yl]ethoxy}benzoic acid] | 310
17 | O=C(O)c1ccc(OCCc2c(CCNS(=O)(=O)Cc3cccc(Cl)c3Cl)n(C(c3ccccc3)c3ccccc3)c3ccc(Cl)cc23)cc1 [Example 29, 4-{2-[1-benzhydryl-5-chloro-2-(2-{[(2,3-dichlorobenzyl)sulfonyl]amino}ethyl)-1H indol-3-yl]ethoxy}benzoic acid] | 190

More lines, now with the values ahead:

Row | IC50 [nM] | Compound
18 | 1100 | O=C(O)c1ccc(OCCc2c(CCNS(=O)(=O)Cc3cccc(C(=O)O)c3)n(C(c3ccccc3)c3ccccc3)c3ccc(Cl)cc23)cc1 [Example 20, 3-({[(2-{1-benzhydryl-3-[2-(4-carboxyphenoxy)ethyl]-5-chloro-1H-indol-2-yl}ethyl)amino]sulfonyl}methyl)benzoic acid]
19 | 1800 | O=C(O)c1ccc(OCCc2c(CCNS(=O)(=O)C(F)(F)F)n(C(c3ccccc3)c3ccccc3)c3ccc(Cl)cc23)cc1 [Example 22, 4-{2-[1-benzhydryl-5-chloro-2-(2-{[(trifluoromethyl)sulfonyl]amino}ethyl)-1H-indol-3-yl]ethoxy}benzoic acid]
20 | 1500 | O=C(O)c1ccc(OCCc2c(CCNS(=O)(=O)C3CC3)n(C(c3ccccc3)c3ccccc3)c3ccc(Cl)cc23)cc1 [Example 23, 4-[2-(1-benzhydryl-5-chloro-2-{2-[(cyclopropylsulfonyl)amino]ethyl}-1H-indol-3-yl)ethoxy]benzoic acid]
21 | 340 | O=C(O)c1ccc(OCCc2c(CCNS(=O)(=O)Cc3cc(C(F)(F)F)cc(C(F)(F)F)c3)n(C(c3ccccc3)c3ccccc3)c3ccc(Cl)cc23)cc1 [Example 24, 4-(2-{1-benzhydryl-2-[2-({[3,5-bis(trifluoromethyl)benzyl]sulfonyl}amino)ethyl]-5-chloro-1H-indol-3-yl}ethoxy)benzoic acid]
22 | 3400 | O=C(O)c1ccc(OCCc2c(CCNS(=O)(=O)c3ccccc3C(=O)O)n(C(c3ccccc3)c3ccccc3)c3ccc(Cl)cc23)cc1 [Example 25, 2-{[(2-{1-benzhydryl-3-[2-(4-carboxyphenoxy)ethyl]-5-chloro-1H-indol-2-yl}ethyl)amino]sulfonyl}benzoic acid]
23 | 1100 | O=C(O)c1ccc(OCCc2c(CCNS(=O)(=O)c3ccc4ccccc4c3)n(C(c3ccccc3)c3ccccc3)c3ccc(Cl)cc23)cc1 [Example 26, 4-[2-(1-benzhydryl-5-chloro-2-{2-[(2-naphthylsulfonyl)amino]ethyl}-1H-indol-3-yl)ethoxy]benzoic acid]
24 | 800 | O=C(O)c1ccc(OCCc2c(CCNS(=O)(=O)c3cc(Cl)cc(Cl)c3)n(C(c3ccccc3)c3ccccc3)c3ccc(Cl)cc23)cc1 [Example 27, 4-{2-[1-benzhydryl-5-chloro-2-(2-{[(3,5-dichlorophenyl)sulfonyl]amino}ethyl)-1H-indol-3-yl]ethoxy}benzoic acid]
25 | 950 | O=C(O)c1ccc(OCCc2c(CCNS(=O)(=O)c3ccc(Cl)c(Cl)c3)n(C(c3ccccc3)c3ccccc3)c3ccc(Cl)cc23)cc1 [Example 28, 4-{2-[1-benzhydryl-5-chloro-2-(2{[(3,4-dichlorophenyl)sulfonyl]amino}ethyl)-1H-indol-3-yl]ethoxy}benzoic acid]
26 | 150 | O=C(O)c1ccc(OCCc2c(CCNS(=O)(=O)Cc3ccc(Cl)cc3Cl)n(C(c3ccccc3)c3ccccc3)c3ccc(Cl)cc23)cc1 [Example 30, 4-{2-[1-benzhydryl-5-chloro-2-(2-{[(2,4-dichlorobenzyl)sulfonyl]amino}ethyl)-1H-indol-3-yl]ethoxy}benzoic acid]
27 | 85 | O=C(O)c1ccc(OCCc2c(CCNS(=O)(=O)Cc3ccc(Cl)cc3[N+](=O)[O-])n(C(c3ccccc3)c3ccccc3)c3ccc(Cl)cc23)cc1 [Example 32, 4-{2-[1-benzhydryl-5-chloro-2-(2-{[(4-chloro-2-nitrobenzyl)sulfonyl]amino}ethyl)-1H-indol-3-yl]ethoxy}benzoic acid]
28 | 500 | N#Cc1cccc(CS(=O)(=O)NCCc2c(CCOc3ccc(C(=O)O)cc3)c3cc(Cl)ccc3n2C(c2ccccc2)c2ccccc2)c1 [Example 36, 4-{2-[1-Benzhydryl-5-chloro-2-(2-{[(3-cyanobenzyl)sulfonyl]amino}ethyl)-1H-indol-3-yl]ethoxy}benzoic acid]

From US6635771B2, “N-benzhydryl indole compounds” (Wyeth, priority 2001, dated 2003)
